Literature values, collected in US20030012825A1, “Metallized molecule therapies” (priority 2000, published 2003).

Tests used:
[1] = tested on: flow-mediated vasodilation; details: in vivo
[2] = in vivo
[3] = in vivo; remark: listed apart in the source
Metrazol-induced seizure = details: subcutaneously
[4] = tested on: Maximal Electroshock-induced seizure; details: subcutaneously

SMILES: [Cl][Cu][Cl] [copper chloride]
- effect on flow-mediated vasodilation [1]: improve flow-mediated vasodilation

SMILES: N[C@@H](Cc1ccc(O)cc1)C(=O)O [tyrosine]
- ability to pass the blood-brain barrier [2]: unique ability of passing the blood-brain barrier

SMILES: COC1=C(OC)C(=O)C(C/C=C(\C)CC/C=C(\C)CC/C=C(\C)CC/C=C(\C)CC/C=C(\C)CC/C=C(\C)CC/C=C(\C)CC/C=C(\C)CC/C=C(\C)CCC=C(C)C)=C(C)C1=O [Coenzyme Q10]
- EEG brain activity [3]: lowering of EEG

SMILES: [Cu+] [copper ions]
- effect on intracellular HIV replication (HIV): inhibit intracellular HIV replication

SMILES: O=C(O)c1ccccc1[O-].O=C(O)c1ccccc1[O-].[Cu+2] [Cu(II) (salicylate) 2]
- dose at which anticonvulsant activity is initiated, preventing the Metrazol-induced seizure (Metrazol-induced seizure): 100 milligrams per kilogram of bodyweight
- dose at which anticonvulsant activity is initiated, preventing the Maximal Electroshock-induced seizure [4]: 600 milligrams per kilogram of bodyweight
